Data: patent US20220132849A1, “USE OF SPIROPIDION” (SYNGENTA CROP PROTECTION AG, priority 2019, published 2022)

Columns and labels:
[1] = tested on: selected pests; assay: Soil drench on vegetable plants, overall comparison over crops and pests; assay type: in vivo; conditions: soil treatment at the same dose rate (10 mg ai/plant); range of vegetable crops and pests
Experimental: (§1) To the soil at the base of vegetable plants naturally infested with a population of a selected pest (refer Table 2) was applied by drench 30 to 100 mL per plant of an active ingredient (ai) solution at a dose rate of 10 mg ai/plant, wherein the solutions consisted of spiropidion or spirotetramat as active ingredient. Soil application was made 3 to 7 days after transplant in a nursery tray. Spiropidion was applied as a dilution of an SC300 formulation in water. Spirotetramat was applied as a dilution of an SC240 formulation in water. Mortality rates were recorded as a percentage against an untreated check plant and were evaluated at between 5 and 40 days after soil application.

[2] = Uptake from soil into tomato plants after drench, LC/MS of roots, stem and leaves; set-up: species or system Solanum lycopersicum Ailsa Craig; conditions: in vivo
Experimental: In a greenhouse at 20° C., tomato plants (Solanum lycopersicum Ailsa Craig at BBCH 12 growth stage) grown in 50% Jip 3 and 50% peat in 5″ pots were drenched (in five replicates) with 50 mL of a 100 ppm aqueous active ingredient solution (5 mg of active ingredient per plant) prepared from dilution of (i) a spiropidion SC300 formulation (SC=suspension concentrate), and (ii) commercially-available spirotetramat as a SC240 formulation. At four intervals post-treatment (1, 7, 14 and 21 days), tomato plants subjected to treatments (i) and (ii) were sectioned into roots, stem and separate leaf segments, washed and extracted with the quantification by liquid chromatography/mass spectrometry (LC/MS) of amounts (μg) of spiropidion and its dione (cide), and spirotetramat and its dione (cide).

[3] = tested on: coffee leaf miner (Perileucoptera coffeella); assay: Soil drench on naturally infested coffee plants, mortality; assay type: in vivo; conditions: 30 to 95 days after application, against untreated check plant
Experimental: To the soil surface at the base of separate coffee plants naturally infested with a population of coffee leaf miner (Perileucoptera coffeella) was applied as a drench 50 to 100 mL of an active ingredient (ai) solution at a dose rate of 390 mg ai/plant, wherein the active ingredient was spiropidion, or thiamethoxam as a commercial standard. Spiropidion was applied as a dilution of an SC300 formulation in water. Thiamethoxam was applied as a dilution of a WG25 formulation in water. Mortality rates were recorded as a pest control percentage against an untreated check plant and were evaluated at between 30 and 95 days after soil application of the respective active ingredients.

[4] = tested on: Aphis gossypii; assay: Soil drench on naturally infested vegetable plants, mortality; assay type: in vivo; conditions: soil drench 10 mg ai/plant, 5 to 40 days after application
Experimental: as §1

[5] = tested on: Tetranychus urticae; assay: as above; assay type: in vivo; conditions: soil drench 10 mg ai/plant, 5 to 40 days after application
Experimental: as §1

[6] = tested on: Thrips sp.; assay: as above; assay type: in vivo; conditions: soil drench 10 mg ai/plant, 5 to 40 days after application
Experimental: as §1

[7] = tested on: Bemisia tabaci; assay: as above; assay type: in vivo; conditions: soil drench 10 mg ai/plant, 5 to 40 days after application
Experimental: as §1

## CCOC(=O)OC1=C(c2c(C)cc(Cl)cc2C)C(=O)N(C)C12CCN(OC)CC2 [spiropidion]
[1]
  mortality rates compared to spirotetramat: consistently higher
[2]
  rate of uptake from the soil compared to spirotetramat: much greater rate of uptake from the soil

## CN1COCN(Cc2cnc(Cl)s2)/C1=N\[N+](=O)[O-] [thiamethoxam]
[3]; Test no. 1, soil drench 390 mg ai/plant
  % Mortality rate: 39%
[3]; Test no. 2, soil drench 390 mg ai/plant
  % Mortality rate: 68%
[3]; Test no. 3, soil drench 390 mg ai/plant
  % Mortality rate: 81%
[3]; Test no. 4, soil drench 390 mg ai/plant
  % Mortality rate: 73%
[3]; Test no. 5, soil drench 390 mg ai/plant
  % Mortality rate: 38%

## CCOC(=O)OC1=C(c2cc(C)ccc2C)C(=O)N[C@]12CC[C@@H](OC)CC2 [spirotetramat]
[4]; Test no. 8, Eggplant
  % Mortality rate against untreated plant: 71%
[4]; Test no. 10, Cucumber
  % Mortality rate against untreated plant: 87%
[4]; Test no. 15, Melon
  % Mortality rate against untreated plant: 63%
[4]; Test no. 18, Squash
  % Mortality rate against untreated plant: 93%
[4]; Test no. 19, Squash
  % Mortality rate against untreated plant: 84%
[5]; Test no. 1, Eggplant
  % Mortality rate against untreated plant: 62%
[5]; Test no. 2, Eggplant
  % Mortality rate against untreated plant: 85%
[5]; Test no. 21, Hot pepper
  % Mortality rate against untreated plant: 45%
[6]; Test no. 9, Cucumber
  % Mortality rate against untreated plant: 90%
[6]; Test no. 11, Melon
  % Mortality rate against untreated plant: 70%
[6]; Test no. 12, Melon
  % Mortality rate against untreated plant: 90%
[6]; Test no. 13, Melon
  % Mortality rate against untreated plant: 64%
[6]; Test no. 22, Hot pepper
  % Mortality rate against untreated plant: 46%
[6]; Test no. 23, Sweet pepper
  % Mortality rate against untreated plant: 53%
[7]; Test no. 3, Eggplant
  % Mortality rate against untreated plant: 68%
[7]; Test no. 4, Eggplant
  % Mortality rate against untreated plant: 93%
[7]; Test no. 5, Eggplant
  % Mortality rate against untreated plant: 76%
[7]; Test no. 6, Eggplant
  % Mortality rate against untreated plant: 91%
[7]; Test no. 7, Eggplant
  % Mortality rate against untreated plant: 96%
[7]; Test no. 14, Melon
  % Mortality rate against untreated plant: 64%
[7]; Test no. 16, Squash
  % Mortality rate against untreated plant: 83%
[7]; Test no. 17, Squash
  % Mortality rate against untreated plant: 42%
[7]; Test no. 20, Tomato
  % Mortality rate against untreated plant: 84%
